Each block holds one compound with its values, some of them ahead of it. Non-standard residues stand in square brackets, D forms with d. Residues, ends and D or L forms follow the SMILES beside them. *: point of attachment. Sta = CC(C)C[C@H](N)[C@@H](O)CC(=O)O; Isovaleryl = CC(C)CC(=O)*
Legend:
pro-cath-D = biological target: T1, pro-cath-D (Homo sapiens, UniProt P07339); experiment: GST pull-down: competition for binding of LRP1β (1-476) to GST-pro-cath-D; details: radio-labelled LRP1β (1-476), beads with GST-cath-D/52K, increasing concentration of the peptide; Fig. 2C
T1 construct: the 52, 34, 14 and 4 kDa cath-D fragments were expressed as GST fusion proteins; made in house; host or cells: Escherichia coli BL21 (GST fusion)
Procedure: • (A) Schematic representation of GST-LRP1β fragments. Shorter GST-LRP1β fragments (F4, F6-F8) were derived from GST-LRP1β (307-479) (F0). The F4 (349-394) GST-LRP1β fragment was then sub-divided into shorter fragments (F5, F9-13). • (B) Binding of pro-cath-D to GST-LRP1β fragments. Radio-labelled pro-cath-D was incubated with beads containing GST-LRP1β fragments or GST. GST proteins bound to beads were stained by Coomassie (panels a, c) and bound pro-cath-D was detected by autoradiography (panels b, d). • (C) Effect of the (349-397) LRP1 peptide for the binding of the extracellular domain of LRP1β (1-476) to pro-cath-D. Schematic representation and numbering of the EGF-like repeats 16 to 22 present in the extracellular domain of LRP1β is shown in panel a. Radio-labelled extracellular domain of LRP1β (1-476) was incubated with beads containing GST-cath-D/52K in the absence or presence of increasing concentration of the (349-397) LRP1 peptide (panel b). GST proteins stained by Coomassie are shown in left panel and bound LRP1β (1-476) in right panel .
GST pull-down assays. [^35S]methionine-labelled pro-cath-D or LRP1β(1-476) were obtained by transcription and translation of pcDNA3.1(-)cath-D or pcONA3.1(+)LRP1β extracellular domain(1-476) expression plasmids, respectively, using the TNT^T7-coupled reticulocyte lysate system (Promega). […]

[1] = biological target: auto-activated pro-cath-D (Homo sapiens, UniProt P07339); experiment: Cleavage of the LRP1 [349-397] peptide by auto-activated pro-cath-D (HPLC, NH2-terminal sequencing); type: biochemical; details: pro-cath-D 500 ng auto-activated at pH 3.5 for 30 min, 2 h with 50 µM peptide at pH 3.5
Source text: (§1) • (A) Shedding of LRP1 β chain ectodomain. SEAP activity was quantified in the medium of COS cells transiently transfected with SEAP-LRP1β and β-galactosidase vectors in the absence or presence of cath-D vector (panel a). The mean ± SD of 4 independent determinations with both transfections and measurements carried in duplicate is shown *, p<0.0025 versus control (Student's t-test). […] A representative experiment from a transfection performed in duplicate is shown. Similar results were obtained in another independent experiment. • (B) Cleavage of the LRP1 [349-397] peptide by auto-activated pro-cath-D. Pro-cath-D (500 ng), auto-activated at pH 3.5 for 30 min, was incubated for 2 h with 50 µM of LRP1 [349-397] peptide at pH 3.5. Cleaved peptides were resolved by reverse-phase HPLC and subjected to NH2-terminal sequence analysis. Arrows indicate the 3 cleavage sites. • (C) Production of LRP1 β carboxyl-terminal fragment. COS cells, transfected with Myc-LRP1β in the absence or presence of wild-type or D231 N cath-D, were treated with DAPT (1 µM) or DMSO for 24 h. Cells were lysed and the full-length Myc-LRP1β and its carboxy-terminal fragment (LRP1β-CTF) were isolated by immunoprecipitation and visualized by immunoblotting with the monoclonal antibody 11H4. *, p<0.025 versus Luc siRNA HMF cells; **, p<0.0025 versus Luc siRNA HMF cells (Student's t-test).

LRP1β-CTF [2] = experiment: Production of LRP1β carboxyl-terminal fragment in COS cells (immunoprecipitation and immunoblotting); type: cell-based; details: COS cells transfected with Myc-LRP1β, DAPT 1 µM for 24 h; Fig. 5C
Source text: as §1, with “Cells were lysed and the full-length Myc-LRP1β and its carboxy-terminal fragment (LRP1β-CTF) were isolated by immunoprecipitation and visualized by immunoblotting with the monoclonal antibody 11H4. *, p<0.025 versus Luc siRNA HMF cells; **, p<0.0025 versus Luc siRNA HMF cells (Student's t-test).” left out
(§2) Immunoblotting. […] Equal amounts of protein (100 µg) from cell extracts quantitated by the Bradford assay, or equal volumes (80 µl) of conditioned media, were separated by SDS-PAGE on a 7.5 % gel for anti-LRP1β immunoblotting or on a 12 % gel for anti-cath-D immuno-blotting. […]

LRP1β-CTF [3] = experiment: Production of LRP1β-CTF and shedding of LRP1β in HMF fibroblasts; type: cell-based, human; details: DAPT 1 µM, 24 h, Fig. 6B panel a
Procedure: (§3) • (A) Pro-cath-D is internalized in part by LRP1. Conditioned media containing labelled pro-cath-D was produced by incubating cath-D expressing 3Y1-Ad12 cells with [S^35]methionine and [S^35]cysteine for 24 h. HMF fibroblasts were transiently transfected with either Luc siRNA or LRP1 siRNA1 and endocytosis of labelled pro-cath-D was performed 48 h post-transfection. For endocytosis, siRNAs-transfected HMF fibroblasts were incubated for 3 h (panel a) or for 18h (panel c) with conditioned medium containing labelled pro-cath-D in the absence or presence of 10 mM M6P. Cell lysates containing endocytosed labelled cath-D were analyzed by SDS-PAGE after immunoprecipitation with M1G8 anti-cath-D antibody (panels a and c). LRP1β expression was monitored in HMF fibroblasts by immunoblotting 48 h post-transfection with either Luc or LRP1 siRNAs (panels b and d). ßactin was used as a loading control. […] LRP1β shedded in the media of HMF fibroblasts after 24 h in the presence of DAPT (1 µM) was detected by immmunoblotting with the monoclonal antibody #3501 directed against the extracellular LRP1 β chain (panel b). […]
as §2

HMF fibroblasts = experiment: Endocytosis of labelled pro-cath-D in HMF fibroblasts; type: cell-based; details: Homo sapiens, Fibroblast, over 3 h, 10 mM M6P, read-out: inhibition of pro-cath-D internalization
Procedure: as §3

SEAP-LRP1β = experiment: LRP1 ectodomain secretion assay (SEAP activity in the medium); type: cell-based; details: cath-D expressing COS cells, pepstatin 100 µM; Fig. 5A panel b
Source text: as §1, with “Cells were lysed and the full-length Myc-LRP1β and its carboxy-terminal fragment (LRP1β-CTF) were isolated by immunoprecipitation and visualized by immunoblotting with the monoclonal antibody 11H4. *, p<0.025 versus Luc siRNA HMF cells; **, p<0.0025 versus Luc siRNA HMF cells (Student's t-test).” left out
LRP1 ectodomain secretion assay. […] SEAP activity was normalized to […] activity measured by hydrolysis of o-nitrophenyl-β-D-galactopyranoside in cells lysed in the reporter lysis buffer (Promega).

T1 sequence (P07339 21-412): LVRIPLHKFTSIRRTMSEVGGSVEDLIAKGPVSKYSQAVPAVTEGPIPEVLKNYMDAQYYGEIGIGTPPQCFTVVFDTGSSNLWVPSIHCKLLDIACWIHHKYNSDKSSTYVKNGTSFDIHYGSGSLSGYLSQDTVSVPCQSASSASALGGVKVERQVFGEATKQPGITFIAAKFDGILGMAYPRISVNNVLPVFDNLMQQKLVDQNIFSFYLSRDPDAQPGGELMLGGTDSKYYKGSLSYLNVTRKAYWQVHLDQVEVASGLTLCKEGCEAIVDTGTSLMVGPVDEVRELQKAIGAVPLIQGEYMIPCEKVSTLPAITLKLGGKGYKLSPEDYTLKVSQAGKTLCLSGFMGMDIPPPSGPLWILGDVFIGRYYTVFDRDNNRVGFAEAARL
auto-activated pro-cath-D, sequence (P07339 65-412): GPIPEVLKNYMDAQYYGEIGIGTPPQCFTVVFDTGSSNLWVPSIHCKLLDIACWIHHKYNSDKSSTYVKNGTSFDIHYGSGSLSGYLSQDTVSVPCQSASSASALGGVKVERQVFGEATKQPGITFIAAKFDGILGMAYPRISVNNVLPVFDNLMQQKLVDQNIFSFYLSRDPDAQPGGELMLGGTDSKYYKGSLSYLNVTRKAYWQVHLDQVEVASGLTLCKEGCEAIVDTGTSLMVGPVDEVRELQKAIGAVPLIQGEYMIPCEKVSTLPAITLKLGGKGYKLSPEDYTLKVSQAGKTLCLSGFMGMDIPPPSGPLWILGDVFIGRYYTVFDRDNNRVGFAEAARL

competition for the binding of LRP1β (1-476) to GST-pro-cath-D (pro-cath-D): competed efficiently | cleavage sites [1]: 3
Compound: 49-mer: polypeptide sequence of 49 amino acids corresponding to the 349-397 fragment of the extra-cellular LRP1 β chain, SEQ ID NO: 5 (CRCLPGFLGDRCQYRQCSGYCENFGTCQMAADGSRQCRCTAYFEGSRCE)

Compound: C[C@H](NC(=O)Cc1cc(F)cc(F)c1)C(=O)N[C@H](C(=O)OC(C)(C)C)c1ccccc1 [DAPT]
presence of LRP1β-CTF (LRP1β-CTF [2]): strong increase | level of membrane bound LRP1β-CTF (LRP1β-CTF [3]): further increase

Compound: O=C[C@@H](O)[C@@H](O)[C@H](O)[C@H](O)COP(=O)(O)O [M6P, mannose-6-phosphate]
inhibition at 10000 µM (HMF fibroblasts): 82%

Compound: CC(C)CC(=O)N[C@H](C(=O)N[C@H](C(=O)N[C@@H](CC(C)C)[C@@H](O)CC(=O)N[C@@H](C)C(=O)N[C@@H](CC(C)C)[C@@H](O)CC(=O)O)C(C)C)C(C)C [pepstatin A] (Isovaleryl-VV[Sta]A[Sta]-OH)
SEAP-LRP1β ectodomain shedding (SEAP-LRP1β): prevented
